Experimental data: patent US9802960B2 (MILLENNIUM PHARMACEUTICALS, INC., priority 2014, dated 2017)

Biological target: Human VPS34 (Homo sapiens (Human), UniProt Q8NEB9)
Assay: Human VPS34 enzyme assay (Adapta TR-FRET)
Assay type: biochemical
Conditions: compound concentration 1.11 μM; read-out: Percent Inhibition

Chain of Human VPS34 (Q8NEB9 whole entry): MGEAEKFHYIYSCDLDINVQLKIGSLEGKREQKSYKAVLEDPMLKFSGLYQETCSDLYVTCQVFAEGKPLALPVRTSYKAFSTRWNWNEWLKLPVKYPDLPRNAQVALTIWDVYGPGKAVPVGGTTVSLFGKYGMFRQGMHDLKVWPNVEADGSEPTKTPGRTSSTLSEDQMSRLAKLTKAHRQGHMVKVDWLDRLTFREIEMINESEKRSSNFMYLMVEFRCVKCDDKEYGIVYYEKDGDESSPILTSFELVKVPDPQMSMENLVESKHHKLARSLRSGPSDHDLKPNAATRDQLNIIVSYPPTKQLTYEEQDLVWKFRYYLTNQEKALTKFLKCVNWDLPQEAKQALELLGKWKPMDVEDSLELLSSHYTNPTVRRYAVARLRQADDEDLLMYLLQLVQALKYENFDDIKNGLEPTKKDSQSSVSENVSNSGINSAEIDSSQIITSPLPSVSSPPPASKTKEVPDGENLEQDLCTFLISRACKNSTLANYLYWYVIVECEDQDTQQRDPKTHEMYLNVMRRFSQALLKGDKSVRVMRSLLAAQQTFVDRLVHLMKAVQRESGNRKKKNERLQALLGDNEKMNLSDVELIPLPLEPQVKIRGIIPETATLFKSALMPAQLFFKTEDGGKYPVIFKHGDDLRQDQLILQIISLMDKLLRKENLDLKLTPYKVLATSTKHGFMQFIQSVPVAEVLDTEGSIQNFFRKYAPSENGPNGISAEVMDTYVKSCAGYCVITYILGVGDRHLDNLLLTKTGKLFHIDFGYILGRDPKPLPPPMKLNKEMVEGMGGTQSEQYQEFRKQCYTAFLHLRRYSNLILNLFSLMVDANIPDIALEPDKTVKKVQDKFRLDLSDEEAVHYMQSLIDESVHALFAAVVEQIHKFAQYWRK

SMILES	inhibition at 1.11 µM [%]
CC(=O)Nc1cc(-c2cnc(C)c(NS(=O)(=O)c3ccc(C)cc3Cl)c2)ccn1 [Compound I-128]	> 99
CC(=O)Nc1cc(-c2cnc(C)c(NS(=O)(=O)c3ccc(C)cc3F)c2)c(C)cn1 [Compound I-130, N-(5-{[(2-fluoro-4-methylphenyl)sulfonyl]amino}-5′,6-dimethyl-3,4′-bipyridin-2′-yl)acetamide]	> 99
CC(=O)Nc1cc(-c2cnc(C)c(NS(=O)(=O)c3ccc(C(C)(C)C)cc3)c2)ccn1 [Compound I-131, N-(5-{[(4-tert-butylphenyl)sulfonyl]amino}-6-methyl-3,4′-bipyridin-2′-yl)acetamide]	> 99
CNc1ncc(-c2ccnc(NC(C)=O)c2)cc1N1CCCS1(=O)=O [Compound I-132, N-[5-(1,1-dioxidoisothiazolidin-2-yl)-6-(methylamino)-3,4′-bipyridin-2′-yl]acetamide]	> 99
CC(=O)Nc1cc(-c2cnc3ncn(CC4CC4)c3c2)ccn1 [Compound I-135, N-{4-[1-(cyclopropylmethyl)-1H-imidazo[4,5-b]pyridin-6-yl]pyridin-2-yl}acetamide]	99
CC(=O)Nc1cc(-c2cnc(N)c(C(=O)Nc3ccccc3Cl)c2)ccn1 [Compound I-136, 2′-acetamido-6-amino-N-(2-chlorophenyl)-3,4′-bipyridine-5-carboxamide]	> 99
CC(=O)Nc1cc(-c2cncc(S(=O)(=O)N(C)C)c2)ccn1 [Compound I-137, N-[5-(dimethylsulfamoyl)-3,4′-bipyridin-2′-yl]acetamide]	> 99
CC(=O)Nc1cc(-c2cnc(N)c(S(=O)(=O)Cc3ccc(F)cc3F)c2)ccn1 [Compound I-138, N-{6-amino-5-[(2,4-difluorobenzyl)sulfonyl]-3,4′-bipyridin-2′-yl}acetamide]	> 99
CC(=O)Nc1cc(-c2cnc3[nH]ccc3c2)ccn1 [Compound I-140, N-[4-(1H-pyrrolo[2,3-b]pyridin-5-yl)pyridin-2-yl]acetamide]	> 99
CC(=O)Nc1cc(-c2cnc(C)c(NS(=O)(=O)c3cc(C(F)(F)F)ccc3F)c2)ccn1 [Compound I-143, N-[5-({[2-fluoro-5-(trifluoromethyl)phenyl]sulfonyl}amino)-6-methyl-3,4′-bipyridin-2′-yl]acetamide]	> 99
CCOCCS(=O)(=O)c1cc(-c2ccnc(NC(C)=O)c2)cnc1N [Compound I-145, N-{6-amino-5-[(2-ethoxyethyl)sulfonyl]-3,4′-bipyridin-2′-yl}acetamide]	> 99
COC(=O)Nc1cc(-c2cnc(C)c(N3CCCS3(=O)=O)c2)ccn1 [Compound I-146, methyl[5-(1,1-dioxidoisothiazolidin-2-yl)-6-methyl-3,4′-bipyridin-2′-yl]carbamate]	> 99
CC(=O)Nc1cc(-c2cnc(N)c(C(=O)N(C)C)c2)ccn1 [Compound I-149, 2′-acetamido-6-amino-N,N-dimethyl-3,4′-bipyridine-5-carboxamide]	> 99
CC(=O)Nc1cc(-c2cnc3c(c2)c(S(=O)(=O)N2CCCC2)cn3C)ccn1 [Compound I-151, N-{4-[1-methyl-3-(pyrrolidin-1-ylsulfonyl)-1H-pyrrolo[2,3-b]pyridin-5-yl]pyridin-2-yl}acetamide]	> 99
CC(=O)Nc1cc(-c2cnc(N)c(C(=O)N3CCOCC3)c2)ccn1 [Compound I-152, N-[6-amino-5-(morpholin-4-ylcarbonyl)-3,4′-bipyridin-2′-yl]acetamide]	> 99
CC(=O)Nc1cc(-c2cnc(Cl)c(NS(=O)(=O)c3ccc(F)cc3F)c2C)ccn1 [Compound I-153, N-(6-chloro-5-{[(2,4-difluorophenyl)sulfonyl]amino}-4-methyl-3,4′-bipyridin-2′-yl)acetamide]	> 99
CC(=O)Nc1cc(-c2cnc(C)c(NS(=O)(=O)c3ccc(Cl)cc3)c2)ccn1 [Compound I-154, N-(5-{[(4-chlorophenyl)sulfonyl]amino}-6-methyl-3,4′-bipyridin-2′-yl)acetamide]	> 99
CC(=O)Nc1cc(-c2cnc(N)c(S(=O)(=O)N3CCCCC3)c2)ccn1 [Compound I-156, N-[6-amino-5-(piperidin-1-ylsulfonyl)-3,4′-bipyridin-2′-yl]acetamide]	> 99
COc1ccc(S(=O)(=O)Nc2cc(-c3ccnc(NC(C)=O)c3)cnc2C)c(F)c1 [Compound I-163, N-(5-{[(2-fluoro-4-methoxyphenyl)sulfonyl]amino}-6-methyl-3,4′-bipyridin-2′-yl)acetamide]	> 99
COc1ccc(S(=O)(=O)Nc2cc(-c3ccnc(NC(C)=O)c3)cnc2C)cc1 [Compound I-165, N-(5-{[(4-methoxyphenyl)sulfonyl]amino}-6-methyl-3,4′-bipyridin-2′-yl)acetamide]	> 99
CN(C)S(=O)(=O)c1cc(-c2ccnc(Nc3ncco3)c2)cnc1N [Compound I-166, 6-amino-N,N-dimethyl-2′-(1,3-oxazol-2-ylamino)-3,4′-bipyridine-5-sulfonamide]	> 99

Continued, values first:

inhibition at 1.11 µM [%]	SMILES
> 99	CC(=O)Nc1cc(-c2cnc(N)c(N(C)S(C)(=O)=O)c2)ccn1 [Compound I-133, N-{6-amino-5-[methyl(methylsulfonyl)amino]-3,4′-bipyridin-2′-yl}acetamide]
> 99	CC(=O)Nc1cc(-c2cnc(C)c(NS(=O)(=O)c3ccc(C(C)C)cc3)c2)ccn1 [Compound I-134, N-(5-{[(4-isopropylphenyl)sulfonyl]amino}-6-methyl-3,4′-bipyridin-2′-yl)acetamide]
61	CC(=O)Nc1cc(-c2cncc(N)c2)ccn1 [Compound I-139, N-(5-amino-3,4′-bipyridin-2′-yl)acetamide]
> 99	CNc1ncc(-c2ccnc(NC(C)=O)c2)cc1N(CC1CC1)S(C)(=O)=O [Compound I-141, N-{5-[(cyclopropylmethyl)(methylsulfonyl)amino]-6-(methylamino)-3,4′-bipyridin-2′-yl}acetamide]
> 99	COc1cc(C)ccc1S(=O)(=O)Nc1cc(-c2ccnc(NC(C)=O)c2)cnc1C [Compound I-142, N-(5-{[(2-methoxy-4-methylphenyl)sulfonyl]amino}-6-methyl-3,4′-bipyridin-2′-yl)acetamide]
> 99	CC(=O)Nc1cc(-c2cnc(C)c(NS(=O)(=O)c3ccccc3F)c2)ccn1 [Compound I-144, N-(5-{[(2-fluorophenyl)sulfonyl]amino}-6-methyl-3,4′-bipyridin-2′-yl)acetamide]
> 99	CNc1ncc(-c2ccnc(NC(C)=O)c2)cc1N(C)S(C)(=O)=O [Compound I-147, N-{6-(methylamino)-5-[methyl(methylsulfonyl)amino]-3,4′-bipyridin-2′-yl}acetamide]
> 99	CC(=O)Nc1cc(-c2cnc(N)c(S(=O)(=O)NCCc3ccccc3)c2)ccn1 [Compound I-148, N-{6-amino-5-[(2-phenylethyl)sulfamoyl]-3,4′-bipyridin-2′-yl}acetamide]
> 99	CC(=O)Nc1cc(-c2cnc(C)c(NS(=O)(=O)c3c(F)cccc3F)c2)ccn1 [Compound I-150, N-(5-{[(2,6-difluorophenyl)sulfonyl]amino}-6-methyl-3,4′-bipyridin-2′-yl)acetamide]
> 99	CC(=O)Nc1cc(-c2cnc(C)c(NS(=O)(=O)c3cccc(F)c3)c2)ccn1 [Compound I-155, N-(5-{[(3-fluorophenyl)sulfonyl]amino}-6-methyl-3,4′-bipyridin-2′-yl)acetamide]
> 99	CC(=O)Nc1cc(-c2cnc(N)c(C(=O)N3CC[C@@H](F)C3)c2)ccn1 [Compound I-157, N-(6-amino-5-{[(3R)-3-fluoropyrrolidin-1-yl]carbonyl}-3,4′-bipyridin-2′-yl)acetamide]
> 99	CC(=O)Nc1cc(-c2cnc3[nH]cc(S(=O)(=O)N4CCCC4)c3c2)ccn1 [Compound I-158, N-{4-[3-(pyrrolidin-1-ylsulfonyl)-1H-pyrrolo[2,3-b]pyridin-5-yl]pyridin-2-yl}acetamide]
> 99	COc1cc(F)c(S(=O)(=O)Nc2cc(-c3ccnc(NC(C)=O)c3)cnc2C)cc1F [Compound I-159, N-(5-{[(2,5-difluoro-4-methoxyphenyl)sulfonyl]amino}-6-methyl-3,4′-bipyridin-2′-yl)acetamide]
> 99	CNc1ncc(-c2ccnc(NC(C)=O)c2)cc1C(=O)NC12CC(C1)C2 [Compound I-160, 2′-acetamido-N-(bicyclo[1.1.1]pent-1-yl)-6-(methylamino)-3,4′-bipyridine-5-carboxamide]
> 99	CC(=O)Nc1cc(-c2cnc(C)c(NS(=O)(=O)c3ccc(F)cc3F)c2)c(F)cn1 [Compound I-161, N-(5-{[(2,4-difluorophenyl)sulfonyl]amino}-5′-fluoro-6-methyl-3,4′-bipyridin-2′-yl)acetamide]
> 99	CC(=O)Nc1cc(-c2cnc(N(C)C)c(C(=O)N(C)C)c2)ccn1 [Compound I-162, 2′-acetamido-6-(dimethylamino)-N,N-dimethyl-3,4′-bipyridine-5-carboxamide]
> 99	CC(=O)Nc1cc(-c2cnc(F)c(NS(=O)(=O)c3ccc(F)cc3F)c2)ccn1 [Compound I-164, N-(5-{[(2,4-difluorophenyl)sulfonyl]amino}-6-fluoro-3,4′-bipyridin-2′-yl)acetamide]
> 99	CC(=O)Nc1cc(-c2cnc(C)c(NS(C)(=O)=O)c2)ccn1 [Compound I-167, N-{6-methyl-5-[(methylsulfonyl)amino]-3,4′-bipyridin-2′-yl}acetamide]
> 99	CC(=O)Nc1cc(-c2cnc(C)c(NS(=O)(=O)c3cccc(C(F)(F)F)c3)c2)ccn1 [Compound I-168, N-[6-methyl-5-({[3-(trifluoromethyl)phenyl]sulfonyl}amino)-3,4′-bipyridin-2′-yl]acetamide]
> 99	CC(=O)Nc1cc(-c2cnc(N)c(C(=O)NC3CC3)c2)ccn1 [Compound I-169, 2′-acetamido-6-amino-N-cyclopropyl-3,4′-bipyridine-5-carboxamide]
